Source: patent US7569537B2, “Peptide antagonists for inhibiting heat shock protein (Hsp 16.3) of Mycobacterium tuberculosis” (priority 2004, dated 2009)
No end group written: not given here.

Assays:
Hsp16.3 [1] = biological target: T1, Hsp16.3 (Mycobacterium tuberculosis, UniProt P9WMK1); experiment: ADH heat aggregation assay for inhibition of Hsp16.3 chaperon activity; type: biochemical
Procedure: FIG. 2. […] Aggregation assays were performed by heating 5 μM Alcohol dehydrogenase (ADH) to 50° C. directly in a spectrophotometer using a thermostated cuvette holder in a total reaction volume of 500 μl. Optical density was monitored at 360 nm for 1200 seconds and readings were taken at every 100 seconds interval. […] Then the same experiment was performed in the presence of increasing concentrations of the Hsp16.3 binding peptide Seq IDs 10. Aggregation of ADH in the absence of Hsp 16.3 (black triangle). Aggregation in the presence of Hsp 16.3 (black circle). The same experiment when performed in the presence of increasing concentrations of the Hsp 16.3 binding peptide (Seq ID 10) 25 μM (white square), 50 μM (black square), 100 μM (white triangle). Only peptide control (ADH+100 μM peptide) (white circle).
The binding of a peptide need not necessarily result in inhibition. Inhibition will happen only if binding leads to significant changes in the active site. […] A part of the invention is the development of a peptide inhibition assay for Hsp16.3. The method is based on aggregation based assays. The standard assay used for assaying the activity of alpha-crystallin like proteins is to study the protection it confers against heat induced aggregation of proteins, the aggregation activity being measured spectrophotometrically. […] Aggregation of 5 μM ADH at 50° C. can be measured as an apparent optical density at 360 nm using a spectrophotometer equipped with a thermostated cuvette holder in a total reaction volume of 500 μl. The chaperon activity of Hsp16.3 can be determined by mixing ADH with Hsp16.3 at a molar ratio of 5:4 which is equivalent to a ratio of about 12:1 between ADH and Hsp16.3 assuming a nonameric structure of Hsp16.3 as the functional unit (Chang et al., 1996) and aggregation rates again determined spectrophotometrically. […]
A part of the invention is the peptide inhibition assay for Hsp16.3 comprising of heat treating ADH alone, ADH+Hsp16.3 and ADH+Hsp16.3+25, 50 and 100 μM peptide. […] Aggregation of 5 μM ADH at 50° C. was measured as an apparent optical density at 360 nm using Hitachi spectrophotometer equipped with a thermostated cuvette holder in a total reaction volume of 500 μl. The chaperon activity of Hsp16.3 was determined by mixing ADH with Hsp16.3 at a molar ratio of 5:4 and aggregation rates were again determined spectrophotometrically. […]
Aggregation assays were performed by heating 5 μM Alcohol dehydrogenase (ADH) to 50° C. directly in a spectrophotometer using a thermostated cuvette holder in a total reaction volume of 500 μl. Absorbance was monitored at 360 nm (A360) for 1200 seconds and readings were taken at every 100 seconds interval. […] The increase in absorbance indicates aggregation of ADH. […]

human alphaB-crystallin = biological target: T2, human alphaB-crystallin (Homo sapiens, UniProt P02511); experiment: ADH heat aggregation assay with alphaB-crystallin instead of Hsp16.3; type: biochemical; conditions: 25, 50 and 100 μM peptide, ADH:alphaB-crystallin 5:4
T2 construct: made in house
T2 sequence (P02511 1-175): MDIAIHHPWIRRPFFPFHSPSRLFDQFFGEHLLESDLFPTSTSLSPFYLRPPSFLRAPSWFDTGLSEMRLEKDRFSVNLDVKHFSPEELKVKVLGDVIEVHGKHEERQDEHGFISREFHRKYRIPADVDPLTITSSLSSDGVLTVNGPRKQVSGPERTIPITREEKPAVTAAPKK
Procedure: FIG. 3. An example to show the specificity of the inhibitory peptides for Hsp16.3 and not for alphaB-crystallin—a component of human eye lens. A similar assay as described in FIG. 2 was performed using alphaB-crystalline instead of Hsp16.3. The molar ratio between ADH and alphaB-crystallin was maintained 5:4 as in the case of Hsp 16.3. Aggregation in the absence of alphaB-crystallin (black triangle). Aggregation in the presence of alphaB-crystalline (black circle). The same experiment was performed in the presence of increasing concentrations of the Hsp16.3 binding peptide (Seq ID 10) 25 μM (white square), 50 μM (black square), 100 μM (white triangle). Only peptide control (ADH+100 μM peptide) (white circle).
ADH upon being heated to 50° C. aggregates. This aggregation can be completely stopped when Hsp16.3 is added in such a way so as to obtain a molar ratio of ADH to Hsp 16.3 monomer of about 5:4. Incorporation of peptide at a concentration of 100 μM i.e. about 25 fold molar excess leads to significant inhibition of chaperon activity. […] Since it has been shown that Hsp16.3 has functional similarity with human alphaB-crystallin, an eye lens protein (Valdez et al., 2002), therefore the effect of these peptides on human alphaB-crystallin was examined. […] The vector used for expression of this protein was originally generated by Dr. W. C. […]

Hsp16.3 [2] = biological target: T1, Hsp16.3; experiment: NMR (TOCSY) amide proton chemical shifts of peptide free and with Hsp16.3; type: binding; conditions: 0.1 mM protein, 2 mM peptide, pH 7.0, 4 °C
Procedure: FIG. 5. Comparison of chemical shifts of amide protons of free peptide (Seq ID 10) (a) and peptide with Hsp16.3 protein (b). Resonance assignments are indicated with a one-letter amino acid code. All NMR spectra were taken in a Bruker DRX-500 spectrometer equipped with a Z-field gradient probe. All measurements were done in high precision 5-mm NMR tubes in 20 mM sodium phosphate buffer, pH 7.0, containing 250 mM NaCl in 90% H2O and 10% D2O at 4° C. TOCSY spectra were measured using standard pulse sequences in the Bruker pulse library using WATERGATE water suppression method. Standard Bruker software (Xwin-NMR version 1.3) was used to acquire and process the NMR data. The NMR samples were adjusted to a protein concentration of 0.1 mM and a 20-fold ligand excess (2 mM) over binding sites was used throughout the studies.
An important aspect of inhibitor development procedures is to understand the nature of interactions between the inhibitor and its target. […] As a part of this disclosure it is shown that histidine residues in one of the two peptide inhibitors namely Seq ID 10 interact with Hsp16.3 as determined by NMR.
All NMR spectra were taken in a Bruker DRX-500 NMR spectrometer equipped with a Z-field gradient probe. […] TOCSY spectra were measured using standard pulse sequences in the Bruker pulse library using WATERGATE water suppression method. […]

Hsp16.3 [3] = biological target: T1, Hsp16.3; conditions: reverse phage ELISA, A405, 30 μg/well Hsp16.3 or BSA

T1 sequence (P9WMK1 whole entry, looked up): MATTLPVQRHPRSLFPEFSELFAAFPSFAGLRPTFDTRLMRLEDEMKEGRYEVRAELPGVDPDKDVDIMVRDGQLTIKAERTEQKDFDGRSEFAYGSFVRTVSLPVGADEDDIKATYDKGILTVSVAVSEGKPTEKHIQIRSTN

## H-KMHATNHGGGS-NH2 [Seq ID 10]
Hsp16.3 [1]
  IC50: ~50 µM
Hsp16.3 [1]; 25, 50 and 100 μM peptide
  inhibition of chaperon activity of Hsp16.3 (in words): dose dependent inhibition
Hsp16.3 [1]; ADH + 100 μM peptide, no Hsp16.3
  effect of peptide alone on aggregation of ADH (control without Hsp16.3): does not influence the aggregation of ADH
Human alphaB-crystallin
  inhibition of chaperon activity of alphaB-crystallin (in words): no inhibition
Hsp16.3 [2]
  chemical shift change of peptide amide protons on addition of Hsp16.3: significant chemical shift occured in both histidines

## KMHATNH [Seq ID 9]
Hsp16.3 [3]
  binding of phage clone to Hsp16.3 compared to non-specific control BSA (background binding): about three-fold

## H-YPHHFKHRHIPIGGGS-NH2 [Seq ID 22]
Hsp16.3 [1]
  IC50: ~50 µM

## YPHHFKHRHIPI [Seq ID 21]
Hsp16.3 [3]
  binding of phage clone to Hsp16.3 compared to non-specific control BSA (background binding): about three-fold
